The source of these data is PMC9105583, “Stereoselective Synthesis and Anticancer Activity of 2,6-Disubstituted trans-3-Methylidenetetrahydropyran-4-ones” (Materials, 2022).

Format in all cases: cell-based, human
Assay [1] concerns HL-60 cells. Nature of the assay: Annexin V / propidium iodide apoptosis assay, flow cytometry. The following applies: for early apoptotic cells (Annexin V-positive and PI-negative) / late apoptotic cells (Annexin V-positive and PI-positive): compound at 2IC50, 24 h; for early apoptotic cells (Annexin V-positive and PI-negative): control 3.3 ± 0.36%; for late apoptotic cells (Annexin V-positive and PI-positive): control 5.5 ± 1.02%; for change in the number of apoptotic cells: compound at IC50, 24 h. How it is done:
Apoptotic cells were detected using FITC Annexin V Apoptosis Detection Kit I (BD Biosciences, San Jose, CA, USA). HL-60 cells (2.0 × 10^5 cells/mL) seeded in 6-well plates and cultured overnight were treated with various concentrations of 13d or 13g for 24 h. Then, the cells were washed with PBS and resuspended in the binding buffer. After staining with FITC Annexin V and propidium iodide (15 min, room temperature) cells were analyzed by flow cytometry using CytoFlex and Kaluza Analysis Software v2 (Beckman Coulter Inc., Brea, CA, USA).
One of the typical features of apoptotic cell death is translocation of phosphatidylserine from the inside surface to the extracellular surface of the cell membrane, which can be detected with Annexin V [27]. Therefore, to examine the ability of the investigated compounds to induce apoptosis in HL-60 cells, we performed Annexin V and propidium iodide (PI) staining (Figure 5C and Figure 6C). In the control group, 90.3 ± 1.15% of HL-60 cells were healthy, 3.3 ± 0.36% were in early stage of apoptosis (Annexin V-positive and PI-negative) and 5.5 ± 1.02% were in late-stage apoptosis (Annaxin V-positive and PI-positive).
For orientation: Flow cytometry measures light scatter and fluorescence of single cells or particles in a stream.

Assay [2] relates to HL-60 cells. Nature of the assay: Cell morphology by light microscope. The settings on record: IC50 and 2IC50, 24 h. How it is done: HL-60 cells were treated with compound 13d or 13g at IC50 and 2IC50 for 24 h. Then, the cells were examined for morphological changes using a light microscope at 40x magnification and photographed.
HL-60 cells grow in suspension and usually have a roughly spherical shape.

The test system of assay [3] is cleaved PARP in HL-60 cells. Nature of the assay: Cleaved PARP (Asp214) detection, flow cytometry. The following applies: compound at 2IC50 concentration, 24 h; control 0.7 ± 0.13%. How it is done:
(§1) Analysis of apoptosis, DNA damage and cell cycle
(§2) Apoptosis, DNA damage, proliferation and cell cycle kinetics were investigated using the Apoptosis, DNA Damage and Cell Proliferation Kit (BD Biosciences, San Jose, CA, USA) according to the manufacturer’s protocol. Briefly, HL-60 cells (2.0 × 10^5 cells/mL) were seeded in 6-well plates and left to grow for 24 h. Then, the cells were treated with 13d or 13g at IC50 and 2IC50 concentrations. After 24 h incubation, the cells were treated with BrdU solution for 8 h. Then, the cells were collected by centrifugation, fixed and permeabilized. To expose the incorporated BrdU, the cells were incubated with DNase (300 µg/mL in PBS) for 1 h at 37 °C. Afterwards, the cells were stained with fluorescent antibodies, including Anti-BrdU, Anti-Cleaved PARP (Asp214) and Anti-H2AX (pS139) for 20 min at room temperature. Total DNA for cell cycle analysis was stained using DAPI solution (1 µg/mL in staining buffer). Finally, the cells were analyzed by flow cytometry using CytoFLEX (Beckman Coulter, Inc., Brea, CA, USA) and the data analysis was performed with Kaluza Analysis Software v2 (Beckam Coulter, Inc., Brea, CA. USA).
Another hallmark of apoptosis is cleavage of poly(ADP-ribose) polymerase 1 (PARP1) into 24 kDa and 89 kDa fragments executed by caspases 3 and 7. […]

In assay [4] the test system is HL-60 cells. Nature of the assay: MTT assay, metabolic activity (cytotoxicity). The following applies: for IC50: MTT. The protocol: (§3) Metabolic activity by MTT assay
(§4) The MTT (3-([…])-2,5-diphenyl tetrazolium bromide) assay was performed to assess the cytotoxicity of the investigated compounds. Briefly, HL-60, MCF-7 and HUVEC cells were seeded in 24-well plates at density of 8 × 10^4/mL. After 24 h incubation, cells were treated with various concentrations of the compounds and incubated for another 24 h or 48 h. Then, the cells were incubated with MTT solution (100 µL; 5 mg/mL in PBS) for 1.5 h and centrifuged. The formazan product was dissolved in DMSO, and the absorption was measured using FlexStation 3 Multi-Mode Microplate Reader (Molecular Devices, LLC, San Jose, CA, USA) at 560 nm. Assays were performed twice in triplicate for each analog.
(§5) The cytotoxic activity of the obtained methylidenetetrahydropyran-4-ones was investigated in two cancer cell lines, human promyelocytic leukemia (HL-60) and breast cancer adenocarcinoma (MCF-7), and in healthy umbilical vein endothelial cells (HUVEC), for comparison. An anticancer drug, carboplatin, was used as a reference compound. Metabolic activity of the cells was assessed after 48 h incubation with various concentrations of the analogs (Table 6). Purity of all final compounds was determined on the basis of their ^1H NMR spectra (signal-to-noise ratio and presence of unidentified signals) and was at least 98%, in most cases even over 99%.

The subject of assay [5] is MCF-7 cells. Nature of the assay: MTT assay, metabolic activity (cytotoxicity). The settings on record: Homo sapiens, MCF7, 48 h incubation, mean ± SEM. How it is done: as §3, §4, §5
On the technique in general: Formazan colour is commonly taken as a measure of viable cells.

The test system of assay [6] is HL-60 cells. Nature of the assay: BrdU incorporation (proliferation), flow cytometry. The settings on record: 24 h, then BrdU 8 h. How it is done: as §1, §2
To examine the influences of the investigated compounds on HL-60 cell proliferation, cells were exposed to a thymidine analog, bromodeoxyuridine (BrdU), that incorporates into newly synthesized DNA during proliferation.

Assay [7] deals with γH2AX in HL-60 cells. As to the kind of experiment: γH2AX (H2AX pS139) DNA damage detection, flow cytometry. The settings on record: compound at 2IC50, 24 h; control 1.1 ± 0.17%. How it is done: as §1, §2
DNA damage can be the result of either single- or double-strand breaks (DSBs). DSB are considered the most dangerous, as it is assumed that in metazoan, just one DSB has the potential to trigger cell death. […]

[8] abbreviates: Homo sapiens, HL-60, 24 h, 24 h incubation, read-out: IC50 HL-60 after 24 h incubation.
[9] abbreviates: Homo sapiens, HL-60, 48 h, 48 h incubation, mean ± SEM, read-out: IC50 HL-60.
The mark [10] stands for this setting: compound at 2IC50 concentration.

Like-named read-outs stand apart in the source and are kept apart here.

For `C=C1C(=O)C[C@H](c2ccccc2)O[C@H]1C(C)C` (relative stereo) [Analog 13g, Trans-2-isopropyl-3-methylidene-6-phenyltetrahydro-4H-pyran-4-one], the “early apoptotic cells (Annexin V-positive and PI-negative)” value in assay [1] was determined as 8.7 ± 0.57%. The “late apoptotic cells (Annexin V-positive and PI-positive)” value in assay [1] is 39.5 ± 1.16%. Also, the “change in the number of apoptotic cells” value in assay [1] is listed as “not effective”. In assay [2], the “morphological changes of the cells” value is on record as “induced several morphological changes”. The “population of cells with cleaved PARP” value in assay [3] was determined as 13.5 ± 3.6%. The IC50 (in general, the concentration needed to halve the response being measured) was 3.69 ± 0.08 µM in assay [4] (48 h incubation, mean ± SEM, read-out: IC50 HL-60); 6.49 ± 0.31 µM in assay [4] (setting [8]); less than 4 µM in assay [4] (setting [9]); 8.63 ± 0.07 µM in assay [5]. Moreover, the BrdU-incorporating cell population is reported as 31.9 ± 6.02% in assay [6] (setting [10]) and 35.3 ± 1.23% in assay [6] (compound at IC50 concentration). Also, the “cells with γH2AX generation (H2AX phosphorylation)” value in assay [7] is 9.6 ± 2.94%.

As to `C=C1C(=O)C[C@H](C(C)C)O[C@H]1C(C)C` (relative stereo) [Analog 13d, Trans-2,6-diisopropyl-3-methylidenetetrahydro-4H-pyran-4-one], in assay [1], the “early apoptotic cells (Annexin V-positive and PI-negative)” value came out at 13.0 ± 2.64%. Also, the “late apoptotic cells (Annexin V-positive and PI-positive)” value in assay [1] is on record as 24.6 ± 2.34%. Also, in assay [1], the “change in the number of apoptotic cells” value is listed as “did not induce a significant change”. The “morphological changes of the cells” value in assay [2] is recorded as “induced several morphological changes”. The “population of cells with cleaved PARP” value in assay [3] turned out to be 49.0 ± 1.61%. The “selectivity, inhibitory activity in HL-60 versus HUVEC cells (cancer/healthy cell IC50 ratio)” value in assay [4] (HL-60 compared to normal HUVEC cells, 48 h) is “over 3 fold”. Besides, the figures for the IC50 in assay [4] (setting [8]), in assay [4] (setting [9]) and in assay [5] were 15.7 ± 0.61 µM, 7.65 ± 0.05 µM and 14 ± 1 µM, respectively. In addition, the values for the BrdU-incorporating cell population in assay [6] (setting [10]) and in assay [6] (compound at IC50 concentration) were 26.4 ± 6.9% and 31.5 ± 1.65%, respectively. Also, the “cells with γH2AX generation (H2AX phosphorylation)” value in assay [7] is reported as 38.4 ± 5.89%.
